Measured values: patent US20230270788A1, “COMPOSITION FOR AUGMENTING STEMNESS AND USE THEREOF” (GENECHEM INC., priority 2019, published 2023)

Key:
[1] = system: human bone marrow-derived mesenchymal stem cells (hBMSCs); experiment: Cell viability by CCK-8 analysis, hBMSCs; type: cell-based; settings: FIG. 1; for influence on cell viability: all the concentrations (50, 100, 200, 400 μM); for cell viability: concentration of 100 μM
Procedure: (§1) In Example 2, influence of a sialyloligosaccharide on cell viability of stem cells was to be confirmed. Particularly, 3′-sialyllactose, 6′-sialyllactose, and a combination thereof were each treated on the subcultured stem cells in a concentration of 0, 50, 100, 200, or 400 μM, and the cell viability per concentration was verified by cell counting kit-8 (CCK-8) analysis. In particular, of hBMSCs, hATMSCs, and hCBMSCs were seeded in a 96-well plate. Then, the stem cells were treated with 3′-sialyllactose (GeneChem), 6′-sialyllactose (GeneChem), and a mixture of 3′-sialyllactose and 6′-sialyllactose in a concentration of 0, 50, 100, 200, or 400 μM and cultured in a DMEM low glucose medium (HyClone) including 1% antibiotics free of fetal bovine serum (T&I). Next, the viabilities of the cultured cells were confirmed by CCK-8 (Dojindo Laboratories, Kumamoto, Japan) analysis.

[2] = system: human adipose tissue-derived mesenchymal stem cells (hATMSCs); experiment: Cell viability by CCK-8 analysis, hATMSCs; type: cell-based; settings: FIG. 2; for influence on cell viability: all the concentrations (50, 100, 200, 400 μM); for cell viability: concentration of 100 μM
Procedure: as §1

[3] = system: human cord blood-derived mesenchymal stem cells (hCBMSCs); experiment: Cell viability by CCK-8 analysis, hCBMSCs; type: cell-based; settings: FIG. 3; for influence on cell viability: all the concentrations (50, 100, 200, 400 μM); for cell viability: concentration of 100 μM
Procedure: as §1

hBMSCs [4] = experiment: Stemness markers OCT4, SOX2, NANOG by qRT-PCR and western blot, hBMSCs; type: cell-based, human; settings: 100 μM, compared to stem cells cultured without a sialyllactose, FIG. 4
Source text: (§2) In Example 1, human bone marrow-derived mesenchymal stem cells (hBMSCs), human adipose tissue-derived mesenchymal stem cells (hATMSCs), human cord blood-derived mesenchymal stem cells (hCBMSCs), and induced pluripotent stem cells-derived hepatic organoid were used in this experiment. Dulbecco's Modified Eagle's Mediums (DMEM Low Glucose, available from HyClone in Logan, Utah, USA) including 10% fetal bovine serum (available from T&I in Gangwon, Korea), 1% antibiotics (penicillin/streptomycin, available from Gibco in Grand Island, NY, USA) were used as culture mediums of hBMSCs, hATMSCs, and hCBMSCs. After treating 3′-sialyllactose (available from GeneChem), 6′-sialyllactose (available from GeneChem), and a mixture of 3′-sialyllactose and 6′-sialyllactose, each in an amount of 100 μM, the culturing solutions were replaced every 3 days. The negative control was performed in the same manner after adding triple distilled water into the culturing solution. Also, a Hepatocyte Culture Medium (available from Lonza) including an endothelial cell growth medium-2 (available from Lonza), 2.5% FBS, 100 nM dexamethasone (available from Sigma-Aldrich), 20 ng/ml OSM (available from R&D system), and 10 ng/ml HGF (available from PeproTech) was used as the culturing solution of hepatic organoid, and the culturing solution was replaced every 3 days.
(§3) In Example 3, influence of a sialyloligosaccharide on stemness of stem cells was to be confirmed. Particularly, after treating mesenchymal stem cells with each of 3′-sialyllactose, 6′-sialyllactose, and a combination thereof, mRNAs of OCT4, SOX2, and NANOG, which are stem cell markers of the mesenchymal stem cells, and changes in expression at protein levels were each measured by quantitative real-time reverse transcription-polymerase chain reaction (qRT-PCR) and western blot. In particular, total RNAs were isolated from the cells collected after culturing the cells in the same manner as in Example 1, and change in mRNA expression of the isolated total RNAs was confirmed by qRT-PCR using OCT4 primers available from Bioneer (Daejeon, Korea), SOX2 primers available from Bioneer (P200205), and NANOG primers.

hATMSCs = experiment: Stemness markers OCT4, SOX2, NANOG by qRT-PCR and western blot, hATMSCs; type: cell-based, human; settings: 100 μM, compared to stem cells cultured without a sialyllactose, FIG. 5
Source text: as §2, §3

hCBMSCs = experiment: Stemness markers OCT4, SOX2, NANOG by qRT-PCR and western blot, hCBMSCs; type: cell-based, human; settings: 100 μM, compared to stem cells cultured without a sialyllactose, FIG. 6
Source text: as §2, §3

hBMSCs [5] = experiment: Cell senescence factors p16 and p53 by qRT-PCR and Western Blot after subculturing; type: cell-based, human; settings: hBMSCs subcultured, 100 μM, versus without treatment, FIG. 7
Source text: as §2, with “Also, a Hepatocyte Culture Medium (available from Lonza) including an endothelial cell growth medium-2 (available from Lonza), 2.5% FBS, 100 nM dexamethasone (available from Sigma-Aldrich), 20 ng/ml OSM (available from R&D system), and 10 ng/ml HGF (available from PeproTech) was used as the culturing solution of hepatic organoid, and the culturing solution was replaced every 3 days.” left out
In Example 4, influence of a sialyloligosaccharide on senescence of stem cells was to be confirmed. Particularly, after treating the hBMSC stem cells with 3′-sialyllactose, changes in expression at mRNA and protein levels of p16 and p53, which are cell senescence factors after subculturing were each measured by qRT-PCT and Western Blot. […]

hBMSCs [6] = experiment: Senescence-associated beta-galactosidase (SA-β-gal) staining; type: cell-based, human; settings: hBMSCs of 10 passages, 100 μM, versus without treatment, FIG. 7C
Procedure: Also, in order to confirm a degree of senescence of the stem cells after being treated with 3′-sialyllactose (GeneChem), senescence-associated beta-galactosidase staining was performed on hBMSCs of 10 passages, treated with 100 μM of 3′-sialyllactose. In particular, after fixing the cells in formalin, the resultant washed with PBS, and 1 mg/mL of a β-gal staining solution X-Gal, 40 mM of a citric acid-sodium phosphate buffer solution, 150 mM of NaCl, 2 mM of MgCl2, 5 mM of potassium ferrocyanide, and 5 mM of potassium ferricyanide (pH 6.0, available from Sigma-Aldrich, St. Louis, USA) were add to the resultant and reacted at 37° C. Then, degrees of senescence activity of the aged cells (blue, positive) and cells not showing activity of senescence (negative) were confirmed using Eclipse TS100 (available from Nikon USA, Melville, N.Y., USA).

hBMSCs [7] = experiment: Proliferation genes CCNA2 and CDK2 expression by qRT-PCR; type: cell-based, human; settings: hBMSCs having low proliferation ability, 100 μM, mRNA, FIG. 8
Source text: (§4) In Example 1, human bone marrow-derived mesenchymal stem cells (hBMSCs), human adipose tissue-derived mesenchymal stem cells (hATMSCs), human cord blood-derived mesenchymal stem cells (hCBMSCs), and induced pluripotent stem cells-derived hepatic organoid were used in this experiment. Dulbecco's Modified Eagle's Mediums (DMEM Low Glucose, available from HyClone in Logan, Utah, USA) including 10% fetal bovine serum (available from T&I in Gangwon, Korea), 1% antibiotics (penicillin/streptomycin, available from Gibco in Grand Island, NY, USA) were used as culture mediums of hBMSCs, hATMSCs, and hCBMSCs. After treating 3′-sialyllactose (available from GeneChem), 6′-sialyllactose (available from GeneChem), and a mixture of 3′-sialyllactose and 6′-sialyllactose, each in an amount of 100 μM, the culturing solutions were replaced every 3 days. The negative control was performed in the same manner after adding triple distilled water into the culturing solution. Also, a Hepatocyte Culture Medium (available from Lonza) including an endothelial cell growth medium-2 (available from Lonza), 2.5% FBS, 100 nM dexamethasone (available from Sigma-Aldrich), 20 ng/ml OSM (available from R&D system), and 10 ng/ml HGF (available from PeproTech) was used as the culturing solution of hepatic organoid, and the culturing solution was replaced every 3 days. […]

hBMSCs [8] = experiment: Cell viability per subculturing passage by CCK-8; type: cell-based, human; settings: hBMSCs subcultured for 4, 7, 10, and 12 passages, 100 μM, FIG. 9
Procedure: In Example 6, influence of a sialyloligosaccharide on viability of stem cells according to cell subculturing passages was to be confirmed. Particularly, hBMSCs subcultured for 4, 7, 10, and 12 passages were treated with 3′-sialyllactose in a concentration of 100 μM, and the cell viability was confirmed by cell counting kit-8 assay (CCK-8) analysis. In particular, the hBMSCs were seeded in a 96-well plate. Then, the stem cells were treated with 3′-sialyllactose (GeneChem) in a concentration of 100 μM and cultured in a DMEM low glucose medium (HyClone) including 1% antibiotics free of fetal bovine serum (T&I). Viabilities of the cultured cells were confirmed by the CCK-8 analysis.

[9] = system: induced pluripotent stem cells-derived hepatic organoids; experiment: Cell viability of hepatic organoids by CCK analysis; type: cell-based; settings: concentrations of 0.1, 1, 10, and 100 μM for 6 days, 7th day, FIG. 10
Source text: as §4

[10] = system: induced pluripotent stem cells-derived hepatic organoids; experiment: Metabolic maturity of hepatic organoids, mRNA expression ratios by qRT-PCR; type: cell-based; settings: 6 days; for ratios of ALB/AFP: FIG. 12
Source text: as §2
In Example 8, influence of a sialyloligosaccharide on maturity of induced pluripotent stem cells-derived hepatic organoids was to be confirmed. Particularly, after subculturing the hepatic organoids, the organoids were stabilized in a hepatic medium (HM) for a day and treated with 3′-sialyllactose and 6′-sialyllactose in concentrations of 0, 0.1, 1, 10, and 100 μM for 6 days, and then total RNAs were isolated from the hepatic organoids on the 7th day. The changes in expressions at mRNA level of CYP3A4, CYP2A7, ALB, and AFP, which are markers of metabolic maturity, were each measured by qRT-PCR, and the expression ratios were compared to confirm the metabolic maturity.

SMILES | influence on cell viability [1] | cell viability [1] | influence on cell viability [2] | cell viability [2] | influence on cell viability [3] | cell viability [3] | expression at mRNA and protein levels of NANOG (hBMSCs [4]) | expression at mRNA and protein levels of OCT4 (hBMSCs [4]) | expression at mRNA and protein levels of SOX2 (hBMSCs [4]) | expression at mRNA and protein levels of NANOG (hATMSCs) | expression at mRNA and protein levels of OCT4 (hATMSCs) | expression at mRNA and protein levels of SOX2 (hATMSCs) | expression at mRNA and protein levels of NANOG (hCBMSCs) | expression at mRNA and protein levels of OCT4 (hCBMSCs) | expression at mRNA and protein levels of SOX2 (hCBMSCs) | cell viability of hepatic organoids [9] | other results
CC(=O)N[C@H]1[C@H]([C@H](O)[C@H](O)CO)O[C@@](O[C@H]2[C@@H](O)[C@@H](CO)O[C@@H](O[C@H]3[C@H](O)[C@@H](O)C(O)O[C@@H]3CO)[C@@H]2O)(C(=O)O)C[C@@H]1O (some centres unmarked) [3′-sialyllactose] | did not negatively influence the cell viability | increased significantly | did not negatively influence the cell viability | increased significantly | did not negatively influence the cell viability | increased significantly | significantly increased | significantly increased | significantly increased | significantly increased | significantly increased | significantly increased | significantly increased | significantly increased | significantly increased | significantly increased | expression at mRNA and protein levels of p16 (hBMSCs [5]): very low expression; expression at mRNA and protein levels of p53 (hBMSCs [5]): very low expression; SA-β-gal activity (hBMSCs [6]): low SA-β-gal activity; expression of CCNA2 (hBMSCs [7]): significantly increased; expression of CDK2 (hBMSCs [7]): significantly increased; cell viability (hBMSCs [8]): significantly increased; ratios of ALB/AFP ([10]; concentrations of 1, 10, and 100 μM): significantly increased; ratios of CYP3A4/CYP3A7 ([10]; concentrations of 1 and 10 μM, FIG. 11): significantly increased
CC(=O)N[C@H]1[C@H]([C@H](O)[C@H](O)CO)O[C@@](OC[C@H]2O[C@@H](O[C@H]3[C@H](O)[C@@H](O)[C@H](O)O[C@@H]3CO)[C@H](O)[C@@H](O)[C@H]2O)(C(=O)O)C[C@@H]1O [6′-sialyllactose] | did not negatively influence the cell viability | increased significantly | did not negatively influence the cell viability | increased significantly | did not negatively influence the cell viability | increased significantly | significantly increased | significantly increased | significantly increased | significantly increased | significantly increased | significantly increased | significantly increased | significantly increased | significantly increased | significantly increased | ratios of ALB/AFP ([10]; concentrations of 0.1 and 100 μM): significantly increased
